Laboratory results: ChEMBL document CHEMBL1201862, “PubChem BioAssay data set” (2004)
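All cell lines were grown in 96-well plates and treated with compound for 48 hours. At the GI50, growth is halved.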 Active and inactive are the calls of the source. Rule as the data show it: active = GI50 up to about 1.1 µM and inactive = higher.

Assays:
Experiment in all cases: NCI anticancer screen, dose series, 48 h
MCF7 = test system: MCF7
NCI-H460 = test system: NCI-H460
OVCAR-3 = test system: OVCAR-3
BT-549 = test system: BT-549
UACC-257 = test system: UACC-257
CCRF-CEM = test system: CCRF-CEM
HCT-15 = test system: HCT-15
RPMI-8226 = test system: RPMI-8226
HT-29 = test system: HT-29
KM12 = test system: KM12
EKVX = test system: EKVX
A549 = test system: A549
SW-620 = test system: SW-620
DU-145 = test system: DU-145
SR = test system: SR
TK-10 = test system: TK-10
786-0 = test system: 786-0
SF-539 = test system: SF-539

Compound | GI50 (MCF7) | GI50 (NCI-H460) | GI50 (OVCAR-3) | GI50 (BT-549) | GI50 (UACC-257) | GI50 (CCRF-CEM) | GI50 (HCT-15) | GI50 (RPMI-8226) | GI50 (HT-29) | GI50 (KM12) | GI50 (EKVX) | GI50 (A549) | GI50 (SW-620) | GI50 (DU-145) | GI50 (SR) | GI50 (TK-10) | GI50 (786-0) | GI50 (SF-539)
O=S(=O)(c1ccc2ccccc2c1)N1CCN(S(=O)(=O)c2ccc3ccccc3c2)CC1 | > 100 µM (inactive) | > 100 µM (inactive) | 36 µM (inactive) | > 100 µM (inactive) | > 100 µM (inactive) | > 100 µM (inactive) | > 100 µM | > 100 µM (inactive) | > 100 µM (inactive) | > 100 µM (inactive) | > 100 µM (inactive) | > 100 µM (inactive) | > 100 µM (inactive) | > 100 µM (inactive) | > 100 µM (inactive) | > 100 µM (inactive) | > 100 µM (inactive) | 
CO[C@](C(=O)OC[C@H]1[C@@H](COC(C)=O)[C@@H]2O[C@H]1c1cc3c(cc12)OCO3)(c1ccccc1)C(F)(F)F |  | 13.4 µM (inactive) | 27 µM (inactive) | 22.9 µM (inactive) | 40.5 µM (inactive) | 7.19 µM (inactive) | 7.46 µM | 3.68 µM (inactive) | 39.2 µM (inactive) | 14.2 µM (inactive) | 27 µM (inactive) | 17.5 µM (inactive) | 95.9 µM (inactive) | 34.9 µM (inactive) | 21.2 µM (inactive) | 38.3 µM (inactive) |  | 
COc1c2cc(C(C)(C)C)cc1Cc1cccc(c1O)Cc1cc(C(C)(C)C)cc(c1OC)Cc1cccc(c1O)Cc1cc(C(C)(C)C)cc(c1OC)Cc1cccc(c1O)C2 | > 100 µM (inactive) | > 100 µM (inactive) | > 100 µM (inactive) |  | 96.6 µM (inactive) | > 10 µM (inactive) | > 100 µM | > 100 µM (inactive) | > 100 µM (inactive) | > 100 µM (inactive) | > 100 µM (inactive) | > 100 µM (inactive) | > 100 µM (inactive) | > 100 µM (inactive) | > 100 µM (inactive) |  | > 100 µM (inactive) | > 100 µM (inactive)
CC/C(=C\c1ccc(OC)cc1)c1ccc(OC)cc1 | > 100 µM (inactive) | > 100 µM (inactive) | > 100 µM (inactive) | 75.3 µM (inactive) | 38.5 µM (inactive) | > 100 µM (inactive) | 74 µM | 86.3 µM (inactive) | 37.5 µM (inactive) | > 100 µM (inactive) | > 100 µM (inactive) | > 100 µM (inactive) | > 100 µM (inactive) | > 100 µM (inactive) |  | > 100 µM (inactive) | 94.2 µM (inactive) | > 100 µM (inactive)
COc1cc(CN(C)N2C(=O)c3cccc4cc([N+](=O)[O-])cc(c34)C2=O)cc(OC)c1OC | > 100 µM (inactive) | > 100 µM (inactive) | > 100 µM (inactive) | > 100 µM (inactive) |  | > 100 µM (inactive) | > 100 µM | > 100 µM (inactive) | > 100 µM (inactive) | > 100 µM (inactive) |  |  |  | > 100 µM (inactive) | > 100 µM (inactive) |  |  | 
O=C(NCCCN1CCN(CCCNC(=O)Nc2cccc3ccccc23)CC1)Nc1cccc2ccccc12 | 17.5 µM (inactive) |  | 13.6 µM (inactive) | 13.2 µM (inactive) | 13.2 µM (inactive) | 22.2 µM (inactive) | 16.6 µM | 17.3 µM (inactive) | 16.8 µM (inactive) | 19.3 µM (inactive) | 9.82 µM (inactive) | 17.7 µM (inactive) | 8.32 µM (inactive) | 16.9 µM (inactive) |  | 14 µM (inactive) | 18.9 µM (inactive) | 18 µM (inactive)
C=CCOC(=O)Cn1cc(C)c(=O)[nH]c1=O | > 100 µM (inactive) | > 100 µM (inactive) |  |  | > 100 µM (inactive) | > 100 µM (inactive) | > 100 µM | > 100 µM (inactive) | > 100 µM (inactive) | > 100 µM (inactive) | > 100 µM (inactive) | > 100 µM (inactive) | > 100 µM (inactive) | > 100 µM (inactive) | > 100 µM (inactive) | > 100 µM (inactive) | > 100 µM (inactive) | > 100 µM (inactive)
COc1ccc2oc3c(ccc[n+]3C)c(=O)c2c1 | > 100 µM (inactive) | > 100 µM (inactive) | > 100 µM (inactive) |  |  | > 100 µM (inactive) | > 100 µM |  | > 100 µM (inactive) | > 100 µM (inactive) | > 100 µM (inactive) | > 100 µM (inactive) | > 100 µM (inactive) | > 100 µM (inactive) | > 100 µM (inactive) | > 100 µM (inactive) |  | > 100 µM (inactive)
CNC(=S)/C(C#N)=C(\N)N1CCCC1 |  | > 100 µM (inactive) | > 100 µM (inactive) |  |  | > 100 µM (inactive) | > 100 µM | > 100 µM (inactive) | > 100 µM (inactive) | > 100 µM (inactive) | > 100 µM (inactive) | > 100 µM (inactive) | > 100 µM (inactive) | > 100 µM (inactive) | > 100 µM (inactive) | > 100 µM (inactive) | > 100 µM (inactive) | > 100 µM (inactive)
